From patent US6479493B1, “Methods for treatment of type I diabetes” (Cell Pathways, Inc., priority 2001, dated 2002)
Like-named read-outs stand apart in the source and are kept apart here.

Experiments:
[1] = target: T1, cGMP binding sites of the GST-cGB-PDE5 fusion protein (Homo sapiens, UniProt O76074); assay: cGMP binding assay with GST-cGB-PDE5 fusion protein; conditions: for competition with cGMP binding at high concentration: 100 μM compound versus cGMP 2 μM
T1 construct: made in house; host or cells: E. coli BL21 (DE3)
Text: RT-PCR method is used to obtain the cGB domain of PDE5 with forward and reverse primers designed from bovine PDE5A cDNA sequence (McAllister-Lucas L. M. et al, J. Biol. Chem. 268, 22863-22873, 1993) and the selection among PDE 1-10 families. 5′-3′, Inc. kits for total RNA followed by oligo (dT) column purification of mRNA are used with HT-29 cells. […] It is then cloned into pGEX-5X-3 glutathione-S-ransferase (GST) fusion vector (Pharmacia Biotech )with tac promoter, and EcoRI and XhoI cut sites. The fusion vector is then transfected into E. Coli BL21 (DE3) bacteria (Invitrogen). The transfected BL21 bacteria is grown to log phase, and then IPTG is added as an inducer. The induction is carried at 20° C. for 24 hrs. The bacteria are harvested and lysed. The soluble cell lysate is incubated with GSH conjugated Sepharose 4B (GSH-Sepharose 4B). The GST-cGB-pDE5 fusion protein can bind to the GSH-Sepharose beads, and the other proteins are washed off from beads with excessive cold PBS.
Then, the mixture is transferred to Brandel MB-24 cell harvester with GF/B as the filter membrane followed by 2 washes with 10 mL of cold 5 mM potassium buffer(pH 6.8). The membranes are then cut out and transferred to scintillation vials followed by the addition of 1 mL of H2O and 6 mL of Ready Safe™ liquid scintillation cocktail to each vial. The vials are counted on a Beckman LS 6500 scintillation counter.
The quenching by filter membrane or other debris are also calibrated.

native bovine PDE5 = native bovine PDE5 (Bos taurus, UniProt Q28156); conditions: read-out: Kd of cGMP binding, native bovine PDE5; cited from earlier work
U937 cells = assay: apoptosis induction of U937 cells, active caspase 3 indirect immunofluorescence; assay type: cell-based; conditions: 24 hours
Method: U937 cells (from ATCC Rockville, Md.) were grown in RPMI media supplemented with 5% FCS, glutamine, antibiotic/antimycotic and sodium pyruvate. Total RNA was isolated from two U937 cultures, one treated with 5 nM TPA for 48 hours and one grown in normal media as listed above, using the Rouche High Pure RNA Isolation Kit (cat #1 828 665) as per manufacturers protocol. cDNA was then synthesized from the total RNA using GibcoBRL SuperscriptII (Cat #18064-022) reverse transcriptase as per manufacturers protocol. The resulting cDNA was used as a template for RT-PCR reactions using primer sets specific for PDE2 (forward: […], reverse: […]) or PDE5 (forward: […], reverse: […]). mRNA for PDE2 and 5 were both present in the untreated U937 cells. Upon treatment with TPA, the relative amounts of PDE2 mRNA increased 5 fold. Therefore, U937 cells treated with TPA and driven to differentiate into an activated macrophage like state have elevated levels of PDE2 mRNA (see FIG. 1).
The presence of PDE2 and PDE5 protein within U937 cells was confirmed by indirect immunofluorescence (IIF). U937 cells were cultured as above. Two U937 cultures, one grown in the presence of 5 nM TPA for 48 hours and one grown in normal media were processed. All cultures were collected by centrifugation (Shandon Cytospin, 2 minutes @600 rpm) onto poly-L lysine-coated slides and immediately fixed in fresh 3% paraformaldehyde buffered in PBS for 10 minutes. Adherent cultures were grown on coverslips and fixed as above. Cells were permeablized in 0.2% Triton-100 for 2 minutes. Slides were blocked with blocking buffer (5% goat serum, 5% glycerol, 1% gelatin from cold water fish skin and 0.04% NaN3 in PBS) for 1 hour at room temperature.
Slides were then incubated for 1 hour at 37° C. in a humid chamber with antibodies specific for PDE2 (generated in a sheep against the peptide […]) or PDE5 (generated in sheep against the peptide […]). […]
The level of apoptosis in U937 cells was quantified by scoring 500 consecutive cells for the presence of active caspase 3. […]

Row | Structure (SMILES) | competition with cGMP in binding to the cGMP binding sites of GST-cGB-PDE5 ([1]; 3H-cGMP 2 μM, 22° C., 1 hour) | also measured
1 | CCCCOC1C2OP(=O)(O)OCC2OC1n1cnc2c(N)ncnc21 (stereo not drawn) [2′-O-butyl-cAMP] | did not compete with cGMP in binding | –
2 | CCCCOC1C2OP(=O)(O)OCC2OC1n1cnc2c(=O)[nH]c(N)nc21 (stereo not drawn) [2′-O-butyl-cGMP] | did not compete with cGMP in binding | –
3 | Nc1ncnc2c1ncn2[C@@H]1O[C@@H]2COP(=O)(O)O[C@H]2[C@H]1O [Cyclic AMP] | – | competition with cGMP in binding to the cGMP binding sites of GST-cGB-PDE5 [1]: did not compete with cGMP in binding
4 | O=c1[nH]cnc2c1ncn2[C@@H]1O[C@@H]2COP(=O)(O)O[C@H]2[C@H]1O [Cyclic IMP] | – | competition with cGMP binding at high concentration [1]: can partially compete with cGMP
5 | Nc1nc2c(nc(Br)n2[C@@H]2O[C@@H]3COP(=O)(O)O[C@H]3[C@H]2O)c(=O)[nH]1 [Example 8-bromo-cGMP, 8-bromo-cGMP] | – | competition with cGMP binding at high concentration [1]: can partially compete with cGMP
6 | O=C([O-])C1CCN(c2nc(NCc3ccc4c(c3)OCO4)c3cc(Cl)ccc3n2)CC1.[Na+] [Example E4021] | None of the PDE5 inhibitors showed any competition with cGMP in binding | –
7 | CSc1ccc(/C=C2/C(C)=C(CC(=O)O)c3cc(F)ccc32)cc1 [Sulindac sulfide] | None of the PDE5 inhibitors showed any competition with cGMP in binding | –
8 | Nc1ccn([C@@H]2O[C@@H]3COP(=O)(O)O[C@H]3[C@H]2O)c(=O)n1 [cCMP] | did not compete with cGMP in binding | –
9 | Nc1nc2c(ncn2[C@@H]2O[C@@H]3COP(=O)(O)O[C@H]3[C@H]2O)c(=O)[nH]1 [cGMP, cyclic 3′,5′-guanosine monophosphate] | – | Kd (native bovine PDE5): 1.3 µM; Kd ([1]; read-out: Kd of cGMP binding to GST-cGB-PDE5 fusion protein, two cGMP binding sites): 1.6 ± 0.2 µM
10 | O=c1ccn([C@@H]2O[C@@H]3COP(=O)(O)O[C@H]3[C@H]2O)c(=O)[nH]1 [cUMP, cyclic UMP] | did not compete with cGMP in binding | –
11 | CC1=C(CC(=O)O)c2cc(F)ccc2/C1=C\c1ccc(S(C)(=O)=O)cc1 [exisulind] | None of the PDE5 inhibitors showed any competition with cGMP in binding | –
12 | COc1ccc(C2CNC(=O)C2)cc1OC1CCCC1 (stereo not drawn) [rolipram] | – | levels of apoptosis (active caspase 3) (U937 cells; 0.5 uM): No increase in the levels of apoptosis compared to normal background was observed
13 | CCCc1nn(C)c2c(=O)[nH]c(-c3cc(S(=O)(=O)N4CCN(C)CC4)ccc3OCC)nc12 [sildenafil] | – | levels of apoptosis (active caspase 3) (U937 cells; 0.3 nM): No increase in the levels of apoptosis compared to normal background was observed
14 | CCCOc1ccccc1-c1nc2nn[nH]c2c(=O)[nH]1 [zaprinast] | None of the PDE5 inhibitors showed any competition with cGMP in binding | –
